Data from patent US20020099035A1, “Method for preparing alpha-sulfonyl hydroxamic acid derivatives” (priority 2001, published 2002).
Counter-ions that a name gives are not always drawn.

Experiments:
TACE = molecular target: T1, TACE (Homo sapiens, UniProt P78536); assay: Procedure for measuring TACE inhibition (fluorescent peptidyl substrate); format: biochemical
T1 construct: purchased Immunex
Method: […] The reaction is initiated by addition of a fluorescent peptidyl substrate (final concentration 100 μM) to each well and then shaking on a shaker for 5 sec.
The reaction is read (excitation 340 nm, emission 420 nm) for 10 min. and the increase in fluorescence over time is plotted as a linear line. The slope of the line is calculated and represents the reaction rate.
The linearity of the reaction rate is confirmed (r^2>0.85). The mean (x±sem) of the control rate is calculated and compared for statistical significance (p<0.05) with drug-treated rates using Dunnett's multiple comparison test. Dose-response relationships can be generate using multiple doses of drug and IC50 values with 95% CI are estimated using linear regression.

[1] = molecular target: T2, MMP1 (human recombinant fibroblast collagenase) (Homo sapiens, UniProt P03956); assay: In vitro collagenase assay (fluorogenic peptide substrate); format: biochemical; details: read-out: MMP1 (1C50)
T2 construct: human recombinant fibroblast collagenase (truncated, mw=18,828, WAR, Radnor)
T2 sequence (P03956 100-269 limits assumed): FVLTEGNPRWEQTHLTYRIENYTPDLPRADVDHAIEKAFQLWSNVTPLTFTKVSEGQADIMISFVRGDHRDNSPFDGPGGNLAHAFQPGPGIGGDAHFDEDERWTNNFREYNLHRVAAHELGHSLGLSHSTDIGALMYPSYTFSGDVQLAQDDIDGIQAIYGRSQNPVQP
Method: The assay is based on the cleavage of a peptide substrate ((Dnp-Pro-Cha-Gly-Cyns(Me)-His-Ala-Lys(NMa)-NH2), Peptide International, Inc.) by collagenase releasing the fluorescent NMa group which is quantitated on the fluorometer. Dnp quenches the NMa fluorescence in the intact substrate. The assay is run in HCBC assay buffer (50 mM HEPES, pH 7.0, 5 mM Ca^+2, 0.02% Brij, 0.5% Cysteine), with human recombinant fibroblast collagenase (truncated, mw=18,828, WAR, Radnor). Substrate is dissolved in methanol and stored frozen in 1 mM aliquots. Collagenase is stored frozen in buffer in 25 μM aliquots. For the assay, substrate is dissolved in HCBC buffer to a final concentration of 10 μM and collagenase to a final concentration of 5 nM. Compounds are dissolved in methanol, DMSO, or HCBC. The methanol and DMSO are diluted in HCBC to <1.0%. Compounds are added to the 96 well plate containing enzyme and the reaction is started by the addition of substrate.
The reaction is read (excitation 340 nm, emission 444 nm) for 10 min. and the increase in fluorescence over time is plotted as a linear line. The slope of the line is calculated and represents the reaction rate.
(§1) The linearity of the reaction rate is confirmed (r^2>0.85). The mean (x±sem) of the control rate is calculated and compared for statistical significance (p<0.05) with drug-treated rates using Dunnett's multiple comparison test. […]

[2] = molecular target: T3, MMP9 (human neutrophil gelatinase B) (Homo sapiens, UniProt P14780); assay: In vitro gelatinase assay (thiopeptide substrate, DTNB); format: biochemical
T3 construct: from tissue; host or cells: human neutrophils
Method: The assay is based on the cleavage of the thiopeptide substrate ((Ac-Pro-Leu-Gly(2 mercapto-4 methyl-pentanoyl)-Leu-Gly-OEt), Bachem Bioscience) by the enzyme, gelatinase, releasing the substrate product which reacts calorimetrically with DTNB ((5,5′-dithio-bis(2-nitro-benzoic acid)). The enzyme activity is measured by the rate of the color increase.
The thiopeptide substrate is made up fresh as a 20 mM stock in 100% DMSO and the DTNB is dissolved in 100% DMSO as a 100 mM stock and stored in dark at room temperature. Both the substrate and DTNB are diluted together to 1 mM with substrate buffer (50 mM HEPES pH 7.5, 5 mM CaCl2) before use. The stock of human neutrophil gelatinase B is diluted with assay buffer (50 mM HEPES pH 7.5, 5 mM CaCl2, 0.02% Brij) to a final concentration of 0.15 nM. The assay buffer, enzyme, DTNB/substrate (500 μM final concentration) and vehicle or inhibitor are added to a 96 well plate (total reaction volume of 200 μl ) and the increase in color is monitored spectrophotometrically for 5 minutes at 405 nm on a plate reader.
The increase in OD405 is plotted and the slope of the line is calculated which represents the reaction rate.
as §1

MMP13 = MMP13 (Homo sapiens, UniProt P45452); assay: MMP13 inhibition; format: biochemical

T3 sequence (P14780 94-707): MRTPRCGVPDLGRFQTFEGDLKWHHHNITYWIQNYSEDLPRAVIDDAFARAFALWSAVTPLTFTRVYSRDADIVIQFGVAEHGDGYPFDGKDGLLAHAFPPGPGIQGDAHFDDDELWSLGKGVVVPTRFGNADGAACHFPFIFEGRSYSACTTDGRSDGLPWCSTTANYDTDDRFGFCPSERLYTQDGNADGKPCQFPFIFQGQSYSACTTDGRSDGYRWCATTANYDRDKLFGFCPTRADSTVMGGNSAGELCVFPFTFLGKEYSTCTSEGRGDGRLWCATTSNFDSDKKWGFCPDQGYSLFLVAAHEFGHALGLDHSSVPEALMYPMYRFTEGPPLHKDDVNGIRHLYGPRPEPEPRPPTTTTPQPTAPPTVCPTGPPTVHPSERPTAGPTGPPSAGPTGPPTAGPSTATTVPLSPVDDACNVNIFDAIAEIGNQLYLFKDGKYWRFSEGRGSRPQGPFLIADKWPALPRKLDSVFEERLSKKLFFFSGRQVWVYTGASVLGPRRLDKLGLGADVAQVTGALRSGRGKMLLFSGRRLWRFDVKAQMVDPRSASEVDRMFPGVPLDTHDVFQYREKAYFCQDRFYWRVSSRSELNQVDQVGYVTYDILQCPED
T1 sequence (P78536 215-824): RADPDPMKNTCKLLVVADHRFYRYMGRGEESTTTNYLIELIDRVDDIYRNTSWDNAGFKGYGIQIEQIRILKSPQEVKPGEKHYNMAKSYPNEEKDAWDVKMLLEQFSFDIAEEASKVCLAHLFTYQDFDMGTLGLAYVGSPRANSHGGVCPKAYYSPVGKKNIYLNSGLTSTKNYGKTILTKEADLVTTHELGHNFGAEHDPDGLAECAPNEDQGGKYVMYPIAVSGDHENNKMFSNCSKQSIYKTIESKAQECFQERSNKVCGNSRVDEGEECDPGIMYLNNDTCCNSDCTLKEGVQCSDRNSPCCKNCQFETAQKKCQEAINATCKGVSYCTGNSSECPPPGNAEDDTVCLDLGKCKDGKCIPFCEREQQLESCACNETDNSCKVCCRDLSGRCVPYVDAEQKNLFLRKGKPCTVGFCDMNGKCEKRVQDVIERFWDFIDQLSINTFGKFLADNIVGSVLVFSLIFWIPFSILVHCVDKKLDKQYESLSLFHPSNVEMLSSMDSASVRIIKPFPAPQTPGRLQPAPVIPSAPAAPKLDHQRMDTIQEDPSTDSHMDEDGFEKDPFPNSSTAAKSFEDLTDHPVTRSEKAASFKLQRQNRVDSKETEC

melting point [°C]	inhibition at 10 µM (TACE) [%]	IC50 [1] [nM]	IC50 [2] [nM]	IC50 (MMP13) [nM]	SMILES
132.9					COc1ccc(S(=O)(=O)C2(C(=O)NO)CCCN(Cc3ccccc3)C2)cc1 (centres unmarked) (as salt: hydrochloride) [Example 18, 1-Benzyl-3-(4-methoxybenzenesulfonyl)piperidine-3-carboxylic acid hydroxamide]
	54	1300	732	140	COc1ccc(S(=O)(=O)C2(C(=O)NO)CCCN(Cc3ccccc3)C2)cc1 (centres unmarked) [Example 18, 1-Benzyl-3-(4-methoxybenzenesulfonyl)piperidine-3-carboxylic acid hydroxamide]
